Reference: patent publication US5627173A, “Phosphonoacetic acid derivatives and their use for treating degenerative joint disorders” (Hoechst Aktiengesellschaft, priority 1995, dated 1997)
≈ marks a conversion by molar mass, not a printed value.

Tests used:
matrix metalloproteases = experiment: Inhibition of matrix metalloproteases (MMP from rabbit synoviocytes HIG-82, fluorescent substrate); format: biochemical
Description: After confluent cell growth, the MMP expression was induced in the serum-free 3F12 HAM medium by adding 0.3 μmol/l phorbol 12-myristate 13-acetate. The supernatant was removed after incubating at 37° C. for 20 hours.
Activation of the MMP: The supernatant was activated with trypsin (5 μg/ml). After 15 minutes at 37° C., the activation was stopped by adding 1 mmol/l phenylmethylsulfonyl fluoride (PMSF) and incubating for a further 10 minutes. The total volume of the mixture was 210 μl.
The test substance was added in the stated concentration (see table). […] The reaction was stopped after 30 minutes by adding 10 mmol/l EDTA. The total-volume of the mixture was 320 μl . The parameters measured were the fluorescence intensities at […]. In order to take account of the possible intrinsic fluorescence of the test substances, the fluorescence intensities from parallel measurements without substrate were subtracted from the measurements with substrate. All the steps took place at 20° C.

interleukin-1β = experiment: Inhibition of release of interleukin-1β from human mononuclear cells; format: cell-based; settings: 10 .parallel.mol/l (so in the source), IL-1β, LPS-stimulated, 20 to 22 hours
Description: Obtaining mononuclear cells from human blood: 10 ml of human blood stabilized with 1 ml of 3.8 percent sodium citrate solution were diluted with 10 ml of PM16 (Serra, Heidelberg), and an underlayer of 15 ml of Lymphoprep (Dr. Molter GmbH, Heidelberg) was introduced. The samples were centrifuged at 400 x g (Minifuge 2 Heraeus, Osterode) at room temperature for 40 minutes. The mononuclear cells were visible as a white ring at the Lymphoprep/plasma boundary. This ring was cautiously removed with a syringe, diluted with the same volume of PM16 and centrifuged at 400 x g for 10 minutes. The precipitate was washed with ^~ 10 ml of RPMI1640 (+300 mg/I L-glutamine, Gibco, Eggenstein). After the cells had been suspended in ^~ 1 ml of RPMI1640 (+300 mg/I L-glutamine, +25 mM HEPES, +100 μg/ml streptomycin, +100 μg/ml penicillin), the cell density was determined with a JT Coulter Counter (Coulter Diagnostics) and adjusted to 5.10^6 /ml. 90% of the resulting cells were lymphocytes and 10% were monocytes.
Inhibition of release of interleukin-1β: 230 μl of mononuclear cells were incubated with 10 μl of test substance (10 μM in dimethyl sulfoxide (DMSO)/water=1/10) and 10 μl of a lipopolysaccharide solution (500 μg dissolved in 1 ml of DMSO and diluted 1/10 with water before starting the test, from Salmonella abortus equi, (Sigma, Deisenhofen) at 37° C., 5% CO2 for 20 to 22 hours. The samples were cooled to 0° C. in an ice bath and centrifuged in a Sigma centrifuge (2 minutes; 2000 revolutions per minute (rpm)). Aliquots of the supernatant were determined using a commercially available ELISA 5(Biermann, Bad Nauheim).
All active substances were tested at a concentration of 10 .parallel.mol/l. IL-1β release was tested in each case.

[1] = test system: isolated strips of guinea pig lung; experiment: Antagonism of LTD4-induced contraction of isolated strips of guinea pig lung; settings: Cavia porcellus; agonist LTD4; read-out: Anticontractile effect (lung), concentration range corresponding to the IC50 value
Excerpt: (§1) The test was based on the same principle as the test indicated in Pharmacological Test 5; however, strips of lung were used in this case.
(§2) The guinea pig was sacrificed under anesthesia with laughing gas. The entire lung tract was cut out starting from the trachea. The lobes of the lungs were cut in circular fashion to produce strips about 3 mm wide. The strips of the upper lobes were divided up in order to obtain a total of six strips of approximately equal size. The strips were suspended in the organ baths under a preload of 4 g. Modified Krebs-Henseleit solutions were used as nutrient solution. When platelet activating factor (PAF) was used as agonist, the composition of this solution corresponded to that for the agonist SP in Pharmacological Test 5; a Krebs-Henseleit solution as in the case of the agonist KCI (Pharm. Test 5) was used for the agonist LTD4. 95% by volume 02, 5% by volume CO2 was bubbled through the bath, and the bath temperature was 37° C. The test is carried out by a therapeutic/cumulative method with dose levels of 1, 3, 6 and 10 μg/ml.
(§3) The test animals, organ bath, vehicle, mode of administration corresponded to that stated for Pharmacological Test 5.

[2] = test system: isolated strips of guinea pig lung; experiment: Antagonism of PAF-induced contraction of isolated strips of guinea pig lung; settings: Cavia porcellus; agonist PAF; read-out: Anticontractile effect (lung), concentration range corresponding to the IC50 value
Excerpt: as §1, §2, §3

[3] = test system: isolated guinea pig trachea; experiment: Antagonism of KCl-induced contraction of the isolated guinea pig trachea; settings: Cavia porcellus; agonist KCl; read-out: Anticontractile effect (trachea), concentration range needed to bring about a dilatation corresponding to the ED50 range
Excerpt: (§4) The compounds according to the invention are used as antagonists of the contraction of various parts of organs, in this case the isolated guinea pig trachea. The agonists used were KCl, PGF2a, calcium ionophore A23187 and substance P:
Products with a non-specific effect generally show a spasmolytic effect with respect to all agonists. KCI is representative here of non-specific, receptor-independent contraction because KCl-induced contractions are produced predominantly physically, that is to say by increasing the K+ concentration in the outside medium, and change the resting potential of the cell.
(§5) The guinea pigs were sacrificed by lethal anesthesia with laughing gas. The trachea was dissected out over its entire length and cut into 15 individual cartilage rings. In each case five rings were connected together to form a chain and fixed in an organ bath under a preload of 3 g. After an equilibration period of 45 minutes, a contraction was induced with the agonist. Cumulative addition of the antagonist (test product) took place at the plateau 5 of the maximum. Evaluation took place as % change in strength based on the maximum contraction. The test was carried out at 37° C., and the physiological nutrient solution used was a modified Krebs-Henseleit solution through which 95% by volume 02 and 5% by volume CO2 was bubbled.
(§6) Test animals: Albino guinea pigs (102), weight: 200 to 300 g, male or female
(§7) Composition of the organ bath (nutrient solution):
(§8) Vehicle: Double-distilled water, ethanol or isopropanol; Administration: into the organ bath Number of administrations: cumulative, single doses for SP

[4] = test system: isolated guinea pig trachea; experiment: Antagonism of PGF2α-induced contraction of the isolated guinea pig trachea; settings: Cavia porcellus; agonist PGF2α; read-out: Anticontractile effect (trachea), concentration range needed to bring about a dilatation corresponding to the ED50 range
Excerpt: as §4
Inhibition of contractions induced by this cyclooxygenase product is possible only by competitive antagonism at the receptor or of the downstream signal pathway.
as §5, §6, §7, §8

[5] = test system: isolated guinea pig trachea; experiment: Antagonism of calcium ionophore A23187-induced contraction of the isolated guinea pig trachea; settings: Cavia porcellus; agonist Ca ionophore A23187; read-out: Anticontractile effect (trachea), concentration range needed to bring about a dilatation corresponding to the ED50 range
Excerpt: as §4
c) Calcium ionophore A23187 (Calbiochem, Bad Soden) brings about, due to increased uptake of calcium ions, an activation of all calcium-dependent signal cascades in the cell.
as §5, §6, §7, §8

[6] = test system: isolated guinea pig trachea; experiment: Antagonism of substance P-induced contraction of the isolated guinea pig trachea; settings: Cavia porcellus; agonist substance P; read-out: Anticontractile effect (trachea), concentration range needed to bring about a dilatation corresponding to the ED50 range
Excerpt: as §4
Antagonism is possible on the one hand by specific receptor antagonists, and on the other hand by inhibition of the downstream signal pathway.
as §5, §6, §7, §8

SMILES | Inhibition of MMP, Inhibition (%) (matrix metalloproteases; 30 μM) | Inhibition of MMP, Inhibition (%) (matrix metalloproteases; 100 μM) | inhibition at 10 µM (interleukin-1β) [%] | IC50 [1] [µg/mL] | also measured
CCOP(=O)(OCC)C(=Cc1ccc(OC(C)=O)c(OC(C)=O)c1)C(=O)OC [Compound 49] | 8 | 28 |  |  | 
CC(C)OC(=O)C(=Cc1ccc(OCc2ccccc2)c(OCc2ccccc2)c1)P(=O)(O)O [Compound 51, Ammonium hydrogen 2-(3,4-dibenzyloxybenzylidene)-isopropoxycarbonylmethanephosphonate] |  | 14 |  |  | 
COP(=O)(OC)C(Cc1ccc(OCc2ccccc2)c(OCc2ccccc2)c1)C(=O)OC(C)C (centres unmarked) [Compound 25] | 24 |  |  |  | 
CCOP(=O)(OCC)C(=Cc1c(OC)cccc1OC)C(=O)OC(C)C [Compound 48] | 9 | 26 |  |  | Inhibition of MMP, Inhibition (%) (matrix metalloproteases; 10 μM): 7%
COc1cc(OC)c(OC)cc1C=C(C(=O)OC(C)C)P(=O)(OC)OC [Compound 35] | 21 | 52 | 83 |  | 
COc1cc(C=C(C(=O)OC(C)C)P(=O)(OC)OC)cc(OC)c1OC [Compound 31] | 12 | 35 | 97 |  | Inhibition of MMP, Inhibition (%) (matrix metalloproteases; 10 μM): 8%
CCOP(=O)(OCC)C(C#N)=Cc1ccc2c(c1)OCCO2 [Compound 70] |  |  |  | ~6 (≈ 18.6 µM) | 
CCCCCCCCCCCCOc1cc(C=C(C#N)P(=O)(OCC)OCC)ccc1OC [Compound 1] |  |  |  | > 10 | IC50 [2]: 1 to 3 µg/mL (≈ 2.09 to 6.26 µM)
CCOP(=O)(OCC)C(C#N)=Cc1ccc(OC(C)=O)c(OC(C)=O)c1 [Compound 56, 3-(3,4-Diacetoxyphenyl)-2-(diethoxyphosphinyl) acrylonitrile] |  |  |  | 3 to 6 (≈ 7.87 to 15.7 µM) | IC50 [2]: 1 to 3 µg/mL (≈ 2.62 to 7.87 µM)
CCOP(=O)(OCC)C(C#N)=Cc1cc(OC)ccc1OC [Compound 30] |  |  |  | ~10 (≈ 30.7 µM) | EC50 [3]: > 10 µg/mL; EC50 [4]: 6 to 10 µg/mL (≈ 18.4 to 30.7 µM); EC50 [5]: 3 to 6 µg/mL (≈ 9.22 to 18.4 µM); EC50 [6]: 10 to 30 µg/mL (≈ 30.7 to 92.2 µM); IC50 [2]: 1 to 3 µg/mL (≈ 3.07 to 9.22 µM)
COc1ccc(CC(C(=O)OC(C)C)P(=O)(OC)OC)cc1OC (centres unmarked) [Compound 41] |  |  | 11 | > 10 | IC50 [2]: 1 to 3 µg/mL (≈ 2.78 to 8.33 µM)
COP(=O)(OC)C(=Cc1ccc(OCc2ccccc2)c(OCc2ccccc2)c1)C(=O)OC(C)C [Compound 27] | 24 | 48 | 99 |  | 
COc1ccc(C=C(C(=O)OC(C)C)P(=O)(OC)OC)cc1OC [Compound 39] | 19 | 47 | 63 | ~10 (≈ 27.9 µM) | Inhibition of MMP, Inhibition (%) (matrix metalloproteases; 10 μM): 16%
COc1ccc(C=C(C(=O)OC(C)C)P(=O)(OC)OC)cc1OCc1ccccc1 [Compound 14] | 19 | 50 |  |  | 
